The source of these data is patent US10233426B2, “Method for inducing cardiac differentiation of pluripotent stem cell with low-molecular compounds” (KYOTO UNIVERSITY, priority 2014, dated 2019).

This experiment concerns monkey ES cell line transfected with an αMHC promoter-driven GFP gene. Kind of experiment: Chemical screening: GFP fluorometry for cardiac differentiation of monkey ES cells. It counts as cell-based, cynomolgus monkey. The settings on record: GFP fluorometry day 9. The procedure:
Pluripotent stem cells were cultured in culture media to which the test compounds were added in different concentrations (0.3 μM, 1 μM, 3 μM and 10 μM) in early phase and late phase of differentiation of the cells. Cells from the culture were subjected to GFP fluorometry in accordance with the cardiac differentiation protocol shown in FIG. 1a. Besides the test compounds, 10 μM KY02111 was included in the culture media for the late phase differentiation. The intensity of GFP fluorescence determined in the cells from the control culture, which was cultured with no test compound other than KY02111, was assigned to one.
The scheme of chemical screening is illustrated in FIG. 1a. Compounds were screened for the ability of increasing GFP fluorescence compared with the control (KY02111 alone) using a monkey ES cell line transfected with an αMHC promoter-driven GFP gene (Minami et al., Cell Reports 2, 1448-1460, 2012, which is incorporated herein by reference). The ES cell line was derived from a monkey ES cell line (cynomolgus monkey CMK6.4) by transfecting the cells with a vector which expresses green fluorescent protein (GFP) under control by a promoter of α-MHC gene (a marker of cardiac differentiation). The cells were plated at 4.0×10^5 cells per well in 6 well plates (Asahi Glass/5816-006: Ezview culture plates) and cultured for nine days in an IMDM-based medium for cardiac differentiation (200 ml IMDM medium (Sigma 13390), with 50 ml calf serum (GIBCO 10099-141), 2.5 ml MEM non-essential amino acid solution (Sigma M7145), 2.5 ml penicillin-streptomycin ([…]), 2.5 ml 200 mM L-glutamine, 2 ul 2-mercaptoethanol (Sigma M7522), and 255 ul 5N NaOH). Each test compound was added to the medium at different concentrations in the early phase (day 0 to day 3) and the late phase (day 4 to day 7) of cardiac differentiation. Cells obtained from the culture on day 9 were subjected to GFP fluorometry with a Metamorph imaging system. […]

[1] abbreviates: test compound 0.3 μM in Early phase (day 0 to day 3), 10 μM KY02111 in late phase.
The mark [2] stands for this setting: test compound 0.3 μM in Late phase (day 4 to day 7) with 10 μM KY02111.
[3] abbreviates: test compound 1 μM in Early phase (day 0 to day 3), 10 μM KY02111 in late phase.
Where [4] appears, read: test compound 1 μM in Late phase (day 4 to day 7) with 10 μM KY02111.
Where [5] appears, read: test compound 3 μM in Early phase (day 0 to day 3), 10 μM KY02111 in late phase.
Setting [6] is: test compound 3 μM in Late phase (day 4 to day 7) with 10 μM KY02111.
[7] abbreviates: test compound 10 μM in Early phase (day 0 to day 3), 10 μM KY02111 in late phase.
Setting [8] is: test compound 10 μM in Late phase (day 4 to day 7) with 10 μM KY02111.

Molecules are shown by their SMILES.

Consider `NC(=O)c1ccc(-c2nc(-c3ccccn3)c(-c3ccc4c(c3)OCO4)[nH]2)cc1` [5B431542], for which the “intensity of GFP fluorescence relative to control culture (KY02111 only, assigned to one)” value runs as follows: under setting [1], 0.61; under setting [2], 1.2; under setting [3], 0.1; under setting [4], 1.52; under setting [5], 0; under setting [6], 1.44. The “intensity of GFP fluorescence relative to control culture (KY02111 only, assigned to one)” value is, setting by setting: under setting [7], 0; under setting [8], 1.58.

Take `N#C/C(=C/c1ccc(O)c(O)c1)C(=O)NCc1ccccc1` [AG490]: the “intensity of GFP fluorescence relative to control culture (KY02111 only, assigned to one)” value by setting is: under setting [1], 1.5; under setting [2], 0.92; under setting [3], 0.59; under setting [4], 1; under setting [5], 0.79; under setting [6], 1.1. For the same compound, the “intensity of GFP fluorescence relative to control culture (KY02111 only, assigned to one)” value under setting [7] was 0.72 and the “intensity of GFP fluorescence relative to control culture (KY02111 only, assigned to one)” value under setting [8] was 1.33.

As for `O=C1NC(=O)/C(=C\c2ccc3nccnc3c2)S1` [AS605240], the “intensity of GFP fluorescence relative to control culture (KY02111 only, assigned to one)” value under setting [1] was determined as 0.65; the “intensity of GFP fluorescence relative to control culture (KY02111 only, assigned to one)” value under setting [2] amounted to 1.31; the “intensity of GFP fluorescence relative to control culture (KY02111 only, assigned to one)” value under setting [3] amounted to 0.84; the “intensity of GFP fluorescence relative to control culture (KY02111 only, assigned to one)” value under setting [4] is listed as 0.9; the “intensity of GFP fluorescence relative to control culture (KY02111 only, assigned to one)” value under setting [5] is 0.32; the “intensity of GFP fluorescence relative to control culture (KY02111 only, assigned to one)” value under setting [6] is listed as 1.22. Further, the “intensity of GFP fluorescence relative to control culture (KY02111 only, assigned to one)” value by setting is: under setting [7], 0; under setting [8], 0.55.

With `O=c1[nH]c2ccccc2n1C1CCN(Cc2ccc(-c3nc4cc5[nH]cnc5cc4nc3-c3ccccc3)cc2)CC1` [Akt inhibitor 8], the “intensity of GFP fluorescence relative to control culture (KY02111 only, assigned to one)” value reads like this: under setting [1], 1.2; under setting [2], 1.11; under setting [3], 0.96; under setting [4], 1.57; under setting [5], 0.11; under setting [6], 1.33. The “intensity of GFP fluorescence relative to control culture (KY02111 only, assigned to one)” value runs as follows: under setting [7], 0; under setting [8], 1.11.

Consider `CNC(=O)c1ccccc1Sc1ccc2c(/C=C/c3ccccn3)n[nH]c2c1` [Axitinib], for which the “intensity of GFP fluorescence relative to control culture (KY02111 only, assigned to one)” value runs as follows: under setting [1], 0.64; under setting [2], 0.95; under setting [3], 0.02; under setting [4], 0.25; under setting [5], 0; under setting [6], 0.05. Moreover, the “intensity of GFP fluorescence relative to control culture (KY02111 only, assigned to one)” value amounted to 0 under setting [7] and 0 under setting [8].

As to `Cc1ccc(-n2nc(C(C)(C)C)cc2NC(=O)Nc2ccc(OCCN3CCOCC3)c3ccccc23)cc1` [BIRB796], the “intensity of GFP fluorescence relative to control culture (KY02111 only, assigned to one)” value under setting [1] worked out at 1.2; the “intensity of GFP fluorescence relative to control culture (KY02111 only, assigned to one)” value under setting [2] was found to be 1.05; the “intensity of GFP fluorescence relative to control culture (KY02111 only, assigned to one)” value under setting [3] was 0.9; the “intensity of GFP fluorescence relative to control culture (KY02111 only, assigned to one)” value under setting [4] was determined as 0.81; the “intensity of GFP fluorescence relative to control culture (KY02111 only, assigned to one)” value under setting [5] is listed as 0.95; the “intensity of GFP fluorescence relative to control culture (KY02111 only, assigned to one)” value under setting [6] is reported as 0.55. Besides, the “intensity of GFP fluorescence relative to control culture (KY02111 only, assigned to one)” value under setting [7] is 0.08 and the “intensity of GFP fluorescence relative to control culture (KY02111 only, assigned to one)” value under setting [8] was determined as 0.29.

As to `CC(C)(O)/C=C/C(=O)[C@](C)(O)[C@H]1[C@H](O)C[C@@]2(C)[C@@H]3CC=C4[C@@H](C=C(O)C(=O)C4(C)C)[C@]3(C)C(=O)C[C@]12C` [Cucurbitaonl], the “intensity of GFP fluorescence relative to control culture (KY02111 only, assigned to one)” value worked out at 0.11 under setting [1]; 1.62 under setting [2]; 0 under setting [3]; 0 under setting [4]; 0 under setting [5]; 0 under setting [6]. Further, the “intensity of GFP fluorescence relative to control culture (KY02111 only, assigned to one)” value by setting is: under setting [7], 0; under setting [8], 0.

With `c1cc(-c2cnn3cc(-c4ccc(OCCN5CCCCC5)cc4)cnc23)ccn1` [Dorsomorphin], the “intensity of GFP fluorescence relative to control culture (KY02111 only, assigned to one)” value reads like this: under setting [1], 0.13; under setting [2], 0.96; under setting [3], 0.03; under setting [4], 1.67; under setting [5], 0; under setting [6], 1.22. Besides, the “intensity of GFP fluorescence relative to control culture (KY02111 only, assigned to one)” value is 0 under setting [7] and 0.89 under setting [8].

Consider `COc1ccc2c(c1)c(C1=C(c3c[nH]c4ccccc34)C(=O)NC1=O)cn2CCCN(C)C` [Go6983], for which the “intensity of GFP fluorescence relative to control culture (KY02111 only, assigned to one)” value under setting [1] was determined as 1.1; the “intensity of GFP fluorescence relative to control culture (KY02111 only, assigned to one)” value under setting [2] is on record as 1.12; the “intensity of GFP fluorescence relative to control culture (KY02111 only, assigned to one)” value under setting [3] is reported as 0.98; the “intensity of GFP fluorescence relative to control culture (KY02111 only, assigned to one)” value under setting [4] is 0.62; the “intensity of GFP fluorescence relative to control culture (KY02111 only, assigned to one)” value under setting [5] is listed as 2.31; the “intensity of GFP fluorescence relative to control culture (KY02111 only, assigned to one)” value under setting [6] was 0.45. Also, the “intensity of GFP fluorescence relative to control culture (KY02111 only, assigned to one)” value is, setting by setting: under setting [7], 2.12; under setting [8], 0.13.

Consider `CC(C)(C)c1ccc(S(=O)(=O)Nc2ccc(-n3ccnc3)cc2)cc1` [ISCK03], for which the “intensity of GFP fluorescence relative to control culture (KY02111 only, assigned to one)” value runs as follows: under setting [1], 0.08; under setting [2], 1.23; under setting [3], 0; under setting [4], 0.8; under setting [5], 0; under setting [6], 0.79. Moreover, the “intensity of GFP fluorescence relative to control culture (KY02111 only, assigned to one)” value under setting [7] was found to be 0 and the “intensity of GFP fluorescence relative to control culture (KY02111 only, assigned to one)” value under setting [8] is recorded as 0.88.

Consider `COc1ccc(-c2ccc3c(N4CCOCC4)nc(N4C[C@@H](C)O[C@@H](C)C4)nc3n2)cc1CO` [K00063794], for which the “intensity of GFP fluorescence relative to control culture (KY02111 only, assigned to one)” value reads like this: under setting [1], 0.18; under setting [2], 0.95; under setting [3], 0.01; under setting [4], 0.85; under setting [5], 0; under setting [6], 0.21. The “intensity of GFP fluorescence relative to control culture (KY02111 only, assigned to one)” value under setting [7] is listed as 0 and the “intensity of GFP fluorescence relative to control culture (KY02111 only, assigned to one)” value under setting [8] came out at 0.
